In patent US12239619B2, “Composition for inducing pili formation in bacterium of genus Bifidobacterium” (MORINAGA MILK INDUSTRY CO., LTD., priority 2019, dated 2025):

Key:
Assay type in all cases: cell-based
[1] = system: Bifidobacterium longum 1-1 strain; assay: Pili induction in cultured Bifidobacterium longum, Western blotting with anti-FimA antibody; conditions: anaerobic, 37° C.; for pili formation by Western blotting: 10 μg/mL in GAM agar medium, 24 hours (Test Example 5)
Procedure: KUHIMM culture solution (900 mL) containing human feces used in Test Example 1 was fractionated in the order of MilliQ water, 50% methanol, and 100% methanol (250 mL of each) with an activated carbon column (resin volume: 45 mL). Of each fraction, 100 μL was collected in another container, dried under reduced pressure, and then redissolved in 50 μL of MilliQ water. Subsequently, the Bifidobacterium longum 1-1 strain was cultured in GAM medium, and 50 μL of the redissolved solution of the above fraction was added to 1 mL of the bacterial solution obtained by adjusting the above culture solution at OD600=0.1, and culture was performed at 37° C. for 24 hours. After culture, the cells were collected by centrifugation (4000×g, 5 minutes).
Bifidobacterium longum 1-1 strain was anaerobically cultured at 37° C. for 24 hours on GAM agar medium containing 10 μg/mL of aromatic amino acids or the amino acid metabolite produced by Clostridium sporogenes.

[2] = system: Bifidobacterium longum 1-1 strain; assay: Scanning electron microscope observation of pili in cultured Bifidobacterium longum; conditions: 10 μg/mL in GAM agar medium, anaerobic, 37° C., 24 hours
[3] = system: human intestinal epithelial cell line (Caco-2 or HT29-MTX); assay: Adhesion of cultured Bifidobacterium longum to human intestinal epithelial cell line; conditions: B. longum cultured with 10 μg/mL PPA, 15 hours, 2 hours
Procedure: Furthermore, the adhesion of the cultured cells to the human intestinal epithelial cell line (Caco-2 or HT29-MTX) was evaluated. Specifically, the Bifidobacterium longum 1-1 strain was cultured on GAM medium containing 10 μg/mL of PPA at 37° C. for 15 hours. The cells were centrifuged (4000×g, 1 min, 4° C.), collected, and suspended in Dulbecco's modified Eagle's medium (DMEM) at OD600=0.5. 0.2 mL of this bacterial solution was added to a chamber slide glass in which HT29-MTX or Caac-2 cells had been cultured in a single layer, and was allowed to stand at 37° C. for 2 hours. After washing with DMEM medium, Bifidobacterium longum adhered with 4% paraformaldehyde was fixed and stained with crystal violet. The number of bacteria per well was counted under a microscope.

SMILES	pili formation by Western blotting [1]	concentration in the medium that clearly induced the pili formation ([1]; GAM agar medium, 24 hours)	pili polymerization ([1]; GAM agar medium, final concentration 0.01 to 80 μg/mL, 24 hours)	pili observed with scanning electron microscope [2]	adhesion to human intestinal epithelial cell line, presence versus absence [3]
O=C(O)CCc1ccc(O)cc1 [3-(4-hydroxyphenyl)propionic acid]	pili formation was observed although less significant than in the former case	–	–	–	–
O=C(O)CCc1ccccc1 [3-phenylpropionic acid]	pili formation was observed	more than 0.1 μg/mL	induced pili polymerization dose-dependently	large fiber-shaped pili were observed	significantly larger
